The compounds below were run on Hartley-type male guinea pigs (assay: Guinea Pig Homogeneous Skin Passive Anaphylaxis Assay (PCA reaction)). Conditions: Cavia porcellus, 10 mg/kg oral, 48 h after sensitization, read-out: Allergic reaction inhibitory index (%).
Type: in vivo, guinea pig (Hartley-type)
Outline: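 Inhibition % is derived from Evans Blue leakage area (mm^2, product of spot diameters) read 30 min after i.v. OVA/dye challenge. Beforehand, male Hartley guinea pigs (250~300 g) were passively sensitized intradermally with 120-fold-diluted anti-OVA serum and, after 48 h, received test compound 10 mg/kg p.o.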
For `COc1c(OC/C=C(\C)CCC=C(C)C)c2ccc(OC(C)C)cc2oc1=O` [Compound 56, 3-(methoxy)-4-(geranyloxy)-7-(isopropoxy)-2H-1-benzopyran-2-one], the inhibition in vivo at 10 mg/kg was 31%.
In the case of `CCCCCCCCCCOc1ccc2c(OC)c(OC(=O)c3ccccc3)c(=O)oc2c1` [Compound 65, 3-(benzoyloxy)-4-(methoxy)-7-(decyloxy)-2H-1-benzopyran-2-one], the inhibition in vivo at 10 mg/kg is reported as 32%.
`CC(C)=CCC/C(C)=C/COc1c(OC(C)C)c2ccc(OC(C)C)cc2oc1=O` [Compound 55, 3-(geranyloxy)-4,7-(diisopropoxy)-2H-1-benzopyran-2-one] gave an inhibition in vivo at 10 mg/kg of 33%.
For `COc1ccc2c(OC(C)C)c(OC(C)=O)c(=O)oc2c1` [Compound 32, 3-(acetoxy)-4-(isopropoxy)-7-(methoxy)-2H-1-benzopyran-2-one], the inhibition in vivo at 10 mg/kg was 33%.
In the case of `COc1cccc2oc(=O)c(OC(=O)c3ccccc3)c(O)c12` [Compound 194, 3-(benzoyloxy)-4-hydroxy-5-(methoxy)-2H-1-benzopyran-2-one], the inhibition in vivo at 10 mg/kg is reported as 46%.
For `CC(C)=CCC/C(C)=C/COc1c(OC/C=C(\C)CCC=C(C)C)c2ccc(OC(C)C)cc2oc1=O` [Compound 57, 3,4-(digeranyloxy)-7-(isopropoxy)-2H-1-benzopyran-2-one], the inhibition in vivo at 10 mg/kg was 30%.
`CCCCCCCCCCOc1c(O)c2ccc(OC(C)C)cc2oc1=O` [Compound 48, 3-(decyloxy)-4-hydroxy-7-(isopropoxy)-2H-1-benzopyran-2-one] gave an inhibition in vivo at 10 mg/kg of 42%.
In the case of `COc1ccc2c(OC(C)C)c(OC/C=C(\C)CCC=C(C)C)c(=O)oc2c1` [Compound 41, 3-(geranyloxy)-4-(isopropoxy)-7-(methoxy)-2H-1-benzopyran-2-one], the inhibition in vivo at 10 mg/kg is reported as 30%.
`CCCCCCCCCCOc1ccc2c(O)c(OC/C=C(\C)CCC=C(C)C)c(=O)oc2c1` [Compound 67, 3-(geranyloxy)-4-hydroxy-7-(decyloxy)-2H-1-benzopyran-2-one] was tested, and the inhibition in vivo at 10 mg/kg was 39%.
`COc1cccc2c(OC/C=C(\C)CCC=C(C)C)c(OC/C=C(\C)CCC=C(C)C)c(=O)oc12` [Compound 126, 3,4-(digeranyloxy)-8-(methoxy)-2H-1-benzopyran-2-one] gave an inhibition in vivo at 10 mg/kg of 30%.
`CCCCCCCCCCOc1c(O)c(=O)oc2ccc(O)cc12` [Compound 268, 3,6-(dihydroxy)-4-(decyloxy)-2H-1-benzopyran-2-one] gave an inhibition in vivo at 10 mg/kg of 33%.
`CC(=O)Oc1c(OC(C)C)c2cccc(O)c2oc1=O` [Compound 100, 3-(acetoxy)-4-(isopropoxy)-8-hydroxy-2H-1-benzopyran-2-one] showed an inhibition in vivo at 10 mg/kg of 30%.
`COc1cccc2oc(=O)c(OC(C)C)c(O)c12` [Compound 198, 3-(isopropoxy)-4-hydroxy-5-(methoxy)-2H-1-benzopyran-2-one] was tested, and the inhibition in vivo at 10 mg/kg was 40%.
Work on `COc1c(O)c(=O)oc2ccc(O)cc12` [Compound 267, 3,6-(dihydroxy)-4-(methoxy-2H-1-benzopyran-2-one] yielded an inhibition in vivo at 10 mg/kg of 34%.
For `CC(C)=CCC/C(C)=C/COc1c(OC/C=C(\C)CCC=C(C)C)c2ccc(O)cc2oc1=O` [Compound 26, 3,4-(digeranyloxy)-7-hydroxy-2H-1-benzopyran-2-one], the inhibition in vivo at 10 mg/kg was 30%.
With `CC(C)=CCC/C(C)=C/COc1c(OC(C)C)c(=O)oc2c(O)cccc12` [Compound 108, 3-(isopropoxy)-4-(geranyloxy)-8-hydroxy-2H-1-benzopyran-2-one] the inhibition in vivo at 10 mg/kg was 32%.
`CCCCCCCCCCOc1cccc2oc(=O)c(O)c(OC/C=C(\C)CCC=C(C)C)c12` [Compound 238, 3-hydroxy-4-(geranyloxy)-5-(decyloxy)-2H-1-benzopyran-2-one] gave an inhibition in vivo at 10 mg/kg of 33%.
For `CC(C)=CCC/C(C)=C/COc1cccc2oc(=O)c(OC(C)C)c(OC/C=C(\C)CCC=C(C)C)c12` [Compound 258, 3-(isopropoxy)-4,5-(digeranyloxy)-2H-1-benzopyran-2-one], the inhibition in vivo at 10 mg/kg was 32%.
`CCCCCCCCCCOc1c(O)c(=O)oc2cc(O)ccc12` [Compound 9, 4-(decyloxy)-3,7-(dihydroxy)-2H-1-benzopyran-2-one] gave an inhibition in vivo at 10 mg/kg of 39%.
`CC(=O)Oc1c(OC/C=C(\C)CCC=C(C)C)c(=O)oc2c(O)cccc12` [Compound 104, 3-(geranyloxy)-4-(acetoxy)-8-hydroxy-2H-1-benzopyran-2-one] showed an inhibition in vivo at 10 mg/kg of 32%.
`CC(=O)Oc1c(OC(=O)c2ccccc2)c2cccc(O)c2oc1=O` [Compound 96, 3-(acetoxy)-4-(benzoyloxy)-8-hydroxy-2H-1-benzopyran-2-one] showed an inhibition in vivo at 10 mg/kg of 32%.
Compound `COc1c(O)c2ccc(OC/C=C(\C)CCC=C(C)C)cc2oc1=O` [Compound 78, 3-(methoxy)-4-hydroxy-7-(geranyloxy)-2H-1-benzopyran-2-one] has an inhibition in vivo at 10 mg/kg of 37%.
With `CCCCCCCCCCOc1ccc2oc(=O)c(O)c(OC)c2c1` [Compound 277, 3-(hydroxy)-4-(methoxy)-6-(decyloxy)-2H-1-benzopyran-2-one] the inhibition in vivo at 10 mg/kg was 35%.
Work on `CC(=O)Oc1c(OC(C)=O)c2c(OC(C)=O)cccc2oc1=O` [Compound 179, 3,4,5-(triacetoxy)-2H-1-benzopyran-2-one] yielded an inhibition in vivo at 10 mg/kg of 32%.
In the case of `CCCCCCCCCCOc1ccc2oc(=O)c(OC)c(O)c2c1` [Compound 275, 3-(methoxy)-4-(hydroxy)-6-(decyloxy)-2H-1-benzopyran-2-one], the inhibition in vivo at 10 mg/kg is reported as 36%.
Work on `CC(=O)Oc1c(OC(=O)c2ccccc2)c2ccc(O)cc2oc1=O` [Compound 10, 3-(acetoxy)-4-(benzoyloxy)-7-hydroxy-2H-1-benzopyran-2-one] yielded an inhibition in vivo at 10 mg/kg of 30%.
`CC(C)=CCC/C(C)=C/COc1cccc2oc(=O)c(O)c(O)c12` [Compound 245, 3,4-(dihydroxy)-5-(geranyloxy)-2H-1-benzopyran-2-one] showed an inhibition in vivo at 10 mg/kg of 37%.
For `CCCCCCCCCCOc1c(OC(C)=O)c(=O)oc2cc(O)ccc12` [Compound 12, 3-(acetoxy)-4-(decyloxy)-7-hydroxy-2H-1-benzopyran-2-one], the inhibition in vivo at 10 mg/kg was 30%.
`CCCCCCCCCCOc1ccc2c(OC/C=C(\C)CCC=C(C)C)c(OC/C=C(\C)CCC=C(C)C)c(=O)oc2c1` [Compound 73, 3-4-(digeranyloxy)-7-(decyloxy)-2H-1-benzopyran-2-one] gave an inhibition in vivo at 10 mg/kg of 30%.
`CC(C)=CCC/C(C)=C/COc1c(O)c2c(O)cccc2oc1=O` [Compound 187, 3-(geranyloxy)-4,5-(dihydroxy)-2H-1-benzopyran-2-one] gave an inhibition in vivo at 10 mg/kg of 30%.
Work on `O=c1oc2c(O)cccc2c(O)c1O` [Compound 93, 3,4,8-trihydroxy-2H-1-benzopyran-2-one] yielded an inhibition in vivo at 10 mg/kg of 42%.
`COc1c(OC/C=C(\C)CCC=C(C)C)c2cccc(OC)c2oc1=O` [Compound 125, 3,8-(dimethoxy)-4-(geranyloxy)-2H-1-benzopyran-2-one] was tested, and the inhibition in vivo at 10 mg/kg was 31%.
`CC(C)=CCC/C(C)=C/COc1c(O)c2cccc(O)c2oc1=O` [Compound 102, 3-(geranyloxy)-4,8-(dihydroxy)-2H-1-benzopyran-2-one] gave an inhibition in vivo at 10 mg/kg of 35%.
With `CC(=O)Oc1c(OC(C)=O)c2c(OC(C)C)cccc2oc1=O` [Compound 213, 3,4-(diacetoxy)-5-(isopropoxy)-2H-1-benzopyran-2-one] the inhibition in vivo at 10 mg/kg was 33%.
With `CC(C)=CCC/C(C)=C/COc1c(O)c2ccc(OC(C)C)cc2oc1=O` [Compound 53, 3-(geranyloxy)-4-hydroxy-7-(isopropoxy)-2H-1-benzopyran-2-one] the inhibition in vivo at 10 mg/kg was 38%.
`CCCCOc1cccc2oc(=O)c(OC(=O)c3ccccc3)c(OC)c12` [Compound 228, 3-(benzoyloxy)-4-(methoxy)-5-(butoxy)-2H-1-benzopyran-2-one] showed an inhibition in vivo at 10 mg/kg of 34%.
In the case of `CC(C)=CCC/C(C)=C/COc1c(OC(=O)c2ccccc2)c(=O)oc2c(OC/C=C(\C)CCC=C(C)C)cccc12` [Compound 170, 3-(benzoyloxy)-4,8-(digeranyloxy)-2H-1-benzopyran-2-one], the inhibition in vivo at 10 mg/kg is reported as 31%.
With `COc1c(OC(C)C)c2ccc(O)cc2oc1=O` [Compound 18, 3-(methoxy)-4-(isopropoxy)-7-hydroxy-2H-1-benzopyran-2-one] the inhibition in vivo at 10 mg/kg was 30%.
Compound `CC(=O)Oc1c(O)c(=O)oc2c(OC(C)C)cccc12` [Compound 131, 3-hydroxy-4-(acetoxy)-8-(isopropoxy)-2H-1-benzopyran-2-one] has an inhibition in vivo at 10 mg/kg of 31%.
`CC(=O)Oc1c(O)c2ccc(O)cc2oc1=O` [Compound 7, 3-(acetoxy)-4,7-(dihydroxy)-2H-1-benzopyran-2-one] gave an inhibition in vivo at 10 mg/kg of 48%.
`COc1c(OC(C)=O)c2cccc(OC/C=C(\C)CCC=C(C)C)c2oc1=O` [Compound 166, 3-(methoxy)-4-(acetoxy)-8-(geranyloxy)-2H-1-benzopyran-2-one] showed an inhibition in vivo at 10 mg/kg of 30%.
Work on `CC(=O)Oc1c(O)c(=O)oc2cccc(OC(C)C)c12` [Compound 212, 3-hydroxy-4-(acetoxy)-5-(isopropoxy)-2H-1-benzopyran-2-one] yielded an inhibition in vivo at 10 mg/kg of 37%.
`CC(C)=CCC/C(C)=C/COc1c(OC(=O)c2ccccc2)c(=O)oc2cc(O)ccc12` [Compound 23, 3-(benzoyloxy)-4-(geranyloxy)-7-hydroxy-2H-1-benzopyran-2-one] showed an inhibition in vivo at 10 mg/kg of 30%.
`CCCCCCCCCCOc1ccc2c(OC(C)=O)c(OC/C=C(\C)CCC=C(C)C)c(=O)oc2c1` [Compound 69, 3-(geranyloxy)-4-(acetoxy)-7-(decyloxy)-2H-1-benzopyran-2-one] was tested, and the inhibition in vivo at 10 mg/kg was 33%.
For `CC(=O)Oc1c(OC/C=C(\C)CCC=C(C)C)c(=O)oc2cccc(OC/C=C(\C)CCC=C(C)C)c12` [Compound 255, 3,5-(digeranyloxy)-4-(acetoxy)-2H-1-benzopyran-2-one], the inhibition in vivo at 10 mg/kg was 33%.
In the case of `CCCCCCCCCCOc1c(OC)c2cccc(OC)c2oc1=O` [Compound 117, 3-(decyloxy)-4,8-(dimethoxy)-2H-1-benzopyran-2-one], the inhibition in vivo at 10 mg/kg is reported as 32%.
In the case of `CCCCCCCCCCOc1c(OC(=O)c2ccccc2)c2c(OC(C)C)cccc2oc1=O` [Compound 218, 3-(decyloxy)-4-(benzoyloxy)-5-(isopropoxy)-2H-1-benzopyran-2-one], the inhibition in vivo at 10 mg/kg is reported as 31%.

From patent US5428059A, “Benzopyran derivatives and an anti-allergic agent possessing the same as the active ingredient” (Dainippon Ink & Chemicals, Inc., priority 1991, dated 1995)
